According to patent US9040252B2, “Method for increasing and regulating light emission from a chemiluminescent reaction” (Cyanagen S.R.L., priority 2010, dated 2015):

These compounds were tested against T1, horseradish peroxidase (HRP-type VIA) (Armoracia rusticana, UniProt P00433) (assay: Dependence of the enhanced luminol-peroxide-peroxidase chemiluminescent reaction on secondary enhancer concentration). Settings: pH 9.00 Tris buffer; initial light output, FIG. 4.
T1 construct: purchased Sigma-Aldrich
T1 sequence (P00433 31-338 limits assumed): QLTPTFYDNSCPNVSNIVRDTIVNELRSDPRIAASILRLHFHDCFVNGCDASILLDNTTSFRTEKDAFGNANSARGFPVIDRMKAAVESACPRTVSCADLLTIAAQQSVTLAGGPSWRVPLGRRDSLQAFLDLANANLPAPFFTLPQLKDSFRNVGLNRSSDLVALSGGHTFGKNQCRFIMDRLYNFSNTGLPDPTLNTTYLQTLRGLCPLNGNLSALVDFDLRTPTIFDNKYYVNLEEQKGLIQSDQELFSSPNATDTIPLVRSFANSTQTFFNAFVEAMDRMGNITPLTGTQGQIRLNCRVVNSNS
Type: biochemical
Experimental: All measurements reported in Examples were carried out with a Varian Eclipse spectrofluorimeter and the following settings: bio/chemiluminescence mode; emission wavelength: 425 nm; emission slit: 20 nm; Photomultiplier Detection Voltage: medium.
A series of chemiluminescent substrates in 0.15 M, pH 9.00+−0.05 Tris buffer, is prepared, with the following compositions:
[luminol sodium salt]=5 mM
[sodium 3-(phenothiazin-10-yl)propane-1-sulfonate]=3 mM secondary enhancer=MORP, imidazole, 1-methylimidazole, 1,2,3-triazole, 1,2,4-triazole at the following concentrations:
A series of disposable polymethylmethacrylate cuvettes is prepared, each containing 2 mL of substrate solution. To each cuvette are added 10 μL of a 2 μg/mL horseradish peroxidase solution (HRP-type VIA) solution and simultaneously a 30 seconds countdown is started. The cuvette is closed with a square piece of parafilm and vortexed for 3 seconds. The cuvette is then inserted into the spectrofluorimeter. At the end of the 30 seconds countdown measurement of the luminescent signal is initiated and recorded for a 900 sec period. In all cases the signal reaches a plateau level within 30 seconds after the addition of the peroxidase, and then begins to slowly decrease. Initial, plateau levels are plotted vs. secondary enhancer concentration, FIG. 4. As it can be seen, the effect of MORP on signal intensity is quite strong even at very low concentrations. Signal output reaches a sharp maximum at about 1.5 mM of MORP and then falls abruptly. In contrast, N-azoles exert a much more gradual effect on signal intensity, reaching a plateau at much higher concentration levels. Thus, they afford a considerable degree of regulation of the chemiluminescent light output, which cannot be obtained with dialkylaminopyridine secondary enhancers such as MORP.

SMILES | behaviour of enhancement effect with increasing secondary enhancer concentration
Cn1ccnc1 [1-methylimidazole] | tend to reach a plateau
c1cc(N2CCOCC2)ccn1 [MORP, 4-morpholinopyridine, reference compound] | sharply decreases its enhancement effect with a further increase in concentration
c1c[nH]cn1 [imidazole] | begin to slowly decrease their action at very high concentration
c1nc[nH]n1 [1,2,4-triazole] | tend to reach a plateau
c1c[nH]nn1 [1,2,3-triazole] | tend to reach a plateau
